Measured values taken from patent US11420961B2, “Heterocyclic compounds” (Hoffmann-La Roche Inc., priority 2017, dated 2022).

Each compound was assayed against T1, MAGL (recombinant wild-type) (Homo sapiens, UniProt Q99685) (assay: 4-NPA assay: MAGL inhibitory activity by hydrolysis of 4-nitrophenylacetate, absorbance at 405 nm). Conditions: 4-NPA assay (values without footnote [a]).
T1 sequence (Q99685 1-303): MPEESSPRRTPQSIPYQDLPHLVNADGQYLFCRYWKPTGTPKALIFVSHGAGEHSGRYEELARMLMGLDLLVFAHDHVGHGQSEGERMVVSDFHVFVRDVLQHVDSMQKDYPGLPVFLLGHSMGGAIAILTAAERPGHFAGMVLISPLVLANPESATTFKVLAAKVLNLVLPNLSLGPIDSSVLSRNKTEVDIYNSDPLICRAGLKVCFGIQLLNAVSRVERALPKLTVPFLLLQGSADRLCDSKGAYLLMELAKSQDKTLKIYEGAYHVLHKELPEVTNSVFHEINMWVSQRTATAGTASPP
Format: biochemical
Procedure: Compounds were profiled for MAGL inhibitory activity by measuring the enzymatic activity of MAGL by following the hydrolysis of 4-nitorphenylacetate resulting in 4-nitrophenol, which absorbs at 405-412 nm (G. G. Muccioli, G. Labar, D M. Lambert, Chem. Bio. Chem. 2008, 9, 2704-2710). This assay is hereinafter abbreviated “4-NPA assay”.
The 4-NPA assay was carried out in 384 well assay plates (black with clear bottom, non-binding surface treated, Corning Ref. 3655) in a total volume of 40 μL. Compound dilutions were made in 100% DMSO (VWR Chemicals 23500.297) in a polypropylene plate in 3-fold dilution steps to give a final concentration range in the assay from 25 μM to 1.7 nM. 1 μL compound dilutions (100% DMSO) were added to 19 μL MAGL (recombinant wild-type) in assay buffer (50 mM TRIS (GIBCO, 15567-027), 1 mM EDTA (Fluka, 03690-100 ml)). The plate was shaked for 1 min at 2000 rpm (Variomag Teleshake) and then incubated for 15 min at RT. To start the reaction, 20 μL 4-Nitrophenlyacetate (Sigma N-8130) in assay buffer with 6% EtOH was added. The final concentrations in the assay were 1 nM MAGL and 300 μM 4-Nitrophenylacetate. After shaking (1 min, 2000 rpm) and 5 min incubation at RT, the absorbance at 405 nm was measured for a first time (Molecular Devices, SpectraMax Paradigm). A second measurement was then done after incubation for 80 min at RT. From the two measurements, the slope was calculated by substracting the first from the second measurement.

Point of comparison: `O=C1COc2ccc(C(=O)N3CCC(c4noc5cc(C(F)(F)F)ccc45)CC3)cc2N1` [Example 50, 6-[4-[6-(trifluoromethyl)-1,2-benzoxazol-3-yl]piperidine-1-carbonyl]-4H-1,4-benzoxazin-3-one], IC50 150 nM. Against it:
- O=C1COc2ccc(C(=O)N3CCC(C(c4ccc(F)cc4)c4ccnc(F)c4)CC3)cc2N1 (single isomer, unassigned) [Example 110, 6-[4-[(S or R)-(4-Fluorophenyl)-(2-fluoro-4-pyridyl)methyl]piperidine-1-carbonyl]-4H-1,4-benzoxazin-3-one] — 24-fold lower, 6.2 nM
- Cc1ccc([C@@H](c2ccccc2)C2CCN(C(=O)c3ccc4c(c3)NC(=O)CO4)CC2)cc1 (single isomer, unassigned) [Example 15] — 140-fold lower, 1.1 nM
- O=C1COc2ccc(C(=O)N3CCC([C@H](c4ccccc4)c4ccc(F)cc4)CC3)cc2N1 (single isomer, unassigned) [Example 7] — 170-fold lower, 0.9 nM
- O=C1COc2ccc(C(=O)N3CCC(C(c4ccc(F)cc4)c4cccc(OCCOCCF)c4)CC3)cc2N1 (single isomer, unassigned) [Example 94, 6-[4-[(S or R)-[3-[2-(2-Fluoroethoxy)ethoxy]phenyl]-(4-fluorophenyl)methyl]piperidine-1-carbonyl]-4H-1,4-benzoxazin-3-one] — 380-fold lower, 0.4 nM
- O=C1COc2ccc(C(=O)N3CCC(c4n[nH]c5ccccc45)CC3)cc2N1 [Example 36, 6-[4-(1H-indazol-3-yl)piperidine-1-carbonyl]-4H-1,4-benzoxazin-3-one] — within 1.5-fold, 158 nM
- O=C1COc2ccc(C(=O)N3CCC(c4cc5ccccc5[nH]4)CC3)cc2N1 [Example 40, 6-[4-(1H-indol-2-yl)piperidine-1-carbonyl]-4H-1,4-benzoxazin-3-one] — 3.7-fold higher, 550 nM
- O=C1COc2ccc(C(=O)N3CCC(c4csc5ccccc45)CC3)cc2N1 [Example 42, 6-[4-(1-benzothiophen-3-yl)piperidine-1-carbonyl]-4H-1,4-benzoxazin-3-one] — 1.5-fold lower, 97 nM
- O=C1COc2ccc(C(=O)N3CCC([C@@H](c4ccccc4)c4cccc(OCCF)c4)CC3)cc2N1 [Example 81, 6-[4-[(S)-[3-(2-fluoroethoxy)phenyl]-phenyl-methyl]piperidine-1-carbonyl]-4H-1,4-benzoxazin-3-one] — 140-fold lower, 1.1 nM
- Cc1ccc(C(c2ccc(F)cc2)C2CCN(C(=O)c3ccc4c(c3)NC(=O)CO4)CC2)cc1 (single isomer, unassigned) [Example 113, 6-[4-[(R or S)-(4-Fluorophenyl)-(p-tolyl)methyl]piperidine-1-carbonyl]-4H-1,4-benzoxazin-3-one] — 380-fold lower, 0.4 nM
- Cc1cccc(C(c2ccccc2)C2CCN(C(=O)c3ccc4c(c3)NC(=O)CO4)CC2)c1 (stereo not drawn) [Example 59, 6-[4-[m-tolyl(phenyl)methyl]piperidine-1-carbonyl]-4H-1,4-benzoxazin-3-one] — 300-fold lower, 0.5 nM
- COc1ccc(C(c2ccccn2)C2CCN(C(=O)c3ccc4c(c3)NC(=O)CO4)CC2)cc1OC (single isomer, unassigned) [Example 116, 6-[4-[(R or S)-(3,4-Dimethoxyphenyl)-(2-pyridyl)methyl]piperidine-1-carbonyl]-4H-1,4-benzoxazin-3-one] — 2.7-fold lower, 55.4 nM
- O=C1COc2ccc(C(=O)N3CCC(C(c4ccc(F)cc4)c4ccc(F)nc4)CC3)cc2N1 (single isomer, unassigned) [Example 114, 6-[4-[(S or R)-(4-Fluorophenyl)-(6-fluoro-3-pyridyl)methyl]piperidine-1-carbonyl]-4H-1,4-benzoxazin-3-one] — 38-fold lower, 4 nM
- O=C1COc2ccc(C(=O)N3CCC([C@H](c4ccccc4)c4ccc(OCCF)cc4)CC3)cc2N1 [Example 79, 6-[4-[(R)-[4-(2-fluoroethoxy)phenyl]-phenyl-methyl]piperidine-1-carbonyl]-4H-1,4-benzoxazin-3-one] — 25-fold lower, 6 nM
- COc1ccc([C@H](c2ccccc2)C2CCN(C(=O)c3ccc4c(c3)NC(=O)CO4)CC2)cc1OC (single isomer, unassigned) [Example 8] — 38-fold lower, 4 nM
- O=C1COc2ccc(C(=O)N3CCC(C(c4ccccc4)c4cccc(OCCF)c4)CC3)cc2N1 (stereo not drawn) [Example 72, 6-[4-[[3-(2-fluoroethoxy)phenyl]-phenyl-methyl]piperidine-1-carbonyl]-4H-1,4-benzoxazin-3-one] — 270-fold lower, 0.55 nM
- O=C1COc2ccc(C(=O)N3CCC(n4cnc5ccccc54)CC3)cc2N1 [Example 49, 6-[4-(benzimidazol-1-yl)piperidine-1-carbonyl]-4H-1,4-benzoxazin-3-one] — 37-fold higher, 5540 nM
- O=C1COc2ccc(C(=O)N3CCC([C@H](c4ccccc4)c4cccc(OCCOCCF)c4)CC3)cc2N1 [Example 66, 6-[4-[(R)-[3-[2-(2-fluoroethoxy)ethoxy]phenyl]-phenyl-methyl]piperidine-1-carbonyl]-4H-1,4-benzoxazin-3-one] — 620-fold lower, 0.24 nM
- Cn1cc(C2CCN(C(=O)c3ccc4c(c3)NC(=O)CO4)CC2)c2cc(Cl)ccc21 [Example 29] — 88-fold lower, 1.7 nM
- O=C1COc2ccc(C(=O)N3CCC(C(c4ccccc4)c4cccc(F)n4)CC3)cc2N1 (single isomer, unassigned) [Example 98, 6-[4-[(S or R)-(6-Fluoro-2-pyridyl)-phenyl-methyl]piperidine-1-carbonyl]-4H-1,4-benzoxazin-3-one] — 83-fold lower, 1.8 nM
- O=C1COc2ccc(C(=O)N3CCN(C(c4ccccc4)c4ccccc4)CC3)cc2N1 [Example 83, 6-(4-benzhydrylpiperazine-1-carbonyl)-4H-1,4-benzoxazin-3-one] — 49-fold lower, 3.09 nM
- COc1ccc(C(c2ccc(F)cc2)C2CCN(C(=O)c3ccc4c(c3)NC(=O)CO4)CC2)cc1OC (single isomer, unassigned) [Example 104, 6-[4-[(S or R)-(3,4-Dimethoxyphenyl)-(4-fluorophenyl)methyl]piperidine-1-carbonyl]-4H-1,4-benzoxazin-3-one] — 500-fold lower, 0.3 nM
- O=C1COc2ccc(C(=O)N3CCC(c4cc5ccc(Cl)cc5[nH]4)CC3)cc2N1 [Example 46, 6-[4-(6-chloro-1H-indol-2-yl)piperidine-1-carbonyl]-4H-1,4-benzoxazin-3-one] — 7.4-fold higher, 1110 nM
- COc1ccc([C@@H](c2ccccc2)C2CCN(C(=O)c3ccc4c(c3)NC(=O)CO4)CC2)cc1OC (single isomer, unassigned) [Example 9] — 500-fold lower, 0.3 nM
- COc1ccc(C(c2cccnc2)C2CCN(C(=O)c3ccc4c(c3)NC(=O)CO4)CC2)cc1OC (single isomer, unassigned) [Example 122, 6-[4-[(R or S)-(3,4-Dimethoxyphenyl)-(3-pyridyl)methyl]piperidine-1-carbonyl]-4H-1,4-benzoxazin-3-one] — 42-fold lower, 3.6 nM
- O=C1COc2ccc(C(=O)N3CCC(C(c4ccc(F)cc4)c4ccc(F)cc4)CC3)cc2N1 [Example 3, 6-[4-[Bis(4-fluorophenyl)methyl]piperidine-1-carbonyl]-4H-1,4-benzoxazin-3-one] — 74-fold lower, 2.03 nM
- O=C1COc2ccc(C(=O)N3CCC(C(c4ccccc4)c4ccccc4)CC3)cc2N1 [Example 2, 6-(4-Benzhydrylpiperidine-1-carbonyl)-4H-1,4-benzoxazin-3-one] — 300-fold lower, 0.5 nM
- O=C1COc2ccc(C(=O)N3CCC([C@@H](c4ccc(F)cc4)c4cccc(OCCF)c4)CC3)cc2N1 [Example 77, 6-[4-[(S)-[3-(2-fluoroethoxy)phenyl]-(4-fluorophenyl)methyl]piperidine-1-carbonyl]-4H-1,4-benzoxazin-3-one] — 90-fold lower, 1.66 nM
- O=C1COc2ccc(C(=O)N3CCC(C(c4ccc(F)cc4)c4ccc(F)nc4)CC3)cc2N1 (single isomer, unassigned) [Example 115, 6-[4-[(R or S)-(4-Fluorophenyl)-(6-fluoro-3-pyridyl)methyl]piperidine-1-carbonyl]-4H-1,4-benzoxazin-3-one] — 110-fold lower, 1.4 nM
- O=C1COc2ccc(C(=O)N3CCC([C@@H](c4ccccc4)c4cccc(F)c4)CC3)cc2N1 [Example 74, 6-[4-[(S)-(3-fluorophenyl)-phenyl-methyl]piperidine-1-carbonyl]-4H-1,4-benzoxazin-3-one] — 270-fold lower, 0.56 nM
- O=C1COc2ccc(C(=O)N3CCC(c4noc5ccc(F)cc45)CC3)cc2N1 [Example 52, 6-[4-(5-fluoro-1,2-benzoxazol-3-yl)piperidine-1-carbonyl]-4H-1,4-benzoxazin-3-one] — within 1.5-fold, 140 nM
- CC(C)n1nc(C2CCN(C(=O)c3ccc4c(c3)NC(=O)CO4)CC2)c2ccc(F)cc21 [Example 38, 6-[4-(6-fluoro-1-propan-2-ylindazol-3-yl)piperidine-1-carbonyl]-4H-1,4-benzoxazin-3-one] — 1.7-fold lower, 86 nM
- COc1ccc(C(c2ccccc2)C2CN(C(=O)c3ccc4c(c3)NC(=O)CO4)C2)cc1OC (stereo not drawn) [Example 127, 6-[3-[(3,4-Dimethoxyphenyl)-phenyl-methyl]azetidine-1-carbonyl]-4H-1,4-benzoxazin-3-one] — 5.3-fold higher, 802 nM
